Measured values: ChEMBL document CHEMBL1201862, “PubChem BioAssay data set” (2004)
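Each compound was tested at five concentrations against cells in 96-well plates for 48 hours. Here, GI50 denotes the concentration required for 50% inhibition of growth.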 Active and inactive are the calls of the source. Rule as the data show it: active = GI50 up to about 1.1 µM and inactive = higher.

Experiments:
Experiment in all cases: inhibition of tumour cell growth, NCI panel, 48 h
Hs-578T = test system: Hs-578T
COLO 205 = test system: COLO 205
A549 = test system: A549
UACC-62 = test system: UACC-62
HT-29 = test system: HT-29
UACC-257 = test system: UACC-257
HOP-92 = test system: HOP-92
ACHN = test system: ACHN
LOX IMVI = test system: LOX IMVI
RPMI-8226 = test system: RPMI-8226
HOP-62 = test system: HOP-62
M14 = test system: M14
SK-MEL-28 = test system: SK-MEL-28
MDA-N = test system: MDA-N
NCI-H23 = test system: NCI-H23
MCF7 = test system: MCF7
SNB-75 = test system: SNB-75
OVCAR-8 = test system: OVCAR-8
NCI-H522 = test system: NCI-H522

Measured: GI50

Nc1nc(Nc2ccc(Cl)cc2)sc1C(=O)c1cccs1
inactive: Hs-578T 15.2 µM | COLO 205 > 100 µM | A549 27.9 µM | UACC-62 > 100 µM | HT-29 6.18 µM | UACC-257 > 100 µM | HOP-92 44.5 µM | ACHN 36.3 µM | LOX IMVI > 100 µM | RPMI-8226 > 100 µM | HOP-62 25.6 µM | M14 > 100 µM | SK-MEL-28 > 100 µM | MDA-N > 100 µM | NCI-H23 29.2 µM | MCF7 33.4 µM

Cc1nc2cc(F)c(F)cc2[nH]c1=O
inactive: Hs-578T 77.6 µM | COLO 205 > 100 µM | A549 > 100 µM | UACC-62 > 100 µM | HT-29 > 100 µM | UACC-257 > 100 µM | HOP-92 > 100 µM | ACHN > 100 µM | LOX IMVI > 100 µM | RPMI-8226 > 100 µM | HOP-62 > 100 µM | M14 > 100 µM | SK-MEL-28 > 100 µM | SNB-75 > 100 µM | MDA-N > 100 µM | NCI-H23 > 100 µM | OVCAR-8 > 100 µM | MCF7 > 100 µM

Nc1nc(Cl)cc(NCC2(CO)CC=CC2)n1
inactive: Hs-578T > 100 µM | COLO 205 > 100 µM | A549 > 100 µM | UACC-62 > 100 µM | HT-29 > 100 µM | UACC-257 > 100 µM | HOP-92 > 100 µM | ACHN > 100 µM | LOX IMVI > 100 µM | HOP-62 > 100 µM | SK-MEL-28 > 100 µM | SNB-75 > 100 µM | NCI-H522 68.7 µM | MDA-N > 100 µM | OVCAR-8 79.8 µM | MCF7 > 100 µM

O[C@H]1[C@H](O)[C@@H](O)[C@@]2(O)CC[C@@H]1N2
inactive: Hs-578T > 100 µM | COLO 205 > 100 µM | A549 > 100 µM | UACC-62 > 100 µM | HT-29 > 100 µM | UACC-257 > 100 µM | HOP-92 > 100 µM | ACHN > 100 µM | LOX IMVI > 100 µM | HOP-62 > 100 µM | M14 > 100 µM | SK-MEL-28 > 100 µM | SNB-75 > 100 µM | NCI-H522 > 100 µM | MDA-N > 100 µM | NCI-H23 > 100 µM | OVCAR-8 > 100 µM | MCF7 > 100 µM

Cc1nnc2sc(-c3ccc([N+](=O)[O-])o3)nn12
inactive: Hs-578T 30.3 µM | COLO 205 13.2 µM | A549 37.8 µM | UACC-62 10.4 µM | HT-29 12.9 µM | UACC-257 12.7 µM | HOP-92 15.9 µM | ACHN 11.2 µM | LOX IMVI 3.56 µM | RPMI-8226 10.5 µM | HOP-62 15.2 µM | M14 9.91 µM | NCI-H522 3.03 µM | MDA-N 5.96 µM | NCI-H23 15.5 µM | OVCAR-8 11.4 µM | MCF7 7.18 µM

CC(=O)NC1C(OCc2ccccc2)OC(CO)C(O)C1OC(C)C(=O)NC(C(=O)NC(CCC(=O)NCCCC(=O)Nc1ccc2c(c1)CN1C(=O)c3ccccc3C1=N2)C(N)=O)C(C)C (stereo not drawn)
inactive: Hs-578T > 100 µM | COLO 205 > 100 µM | A549 > 100 µM | UACC-62 > 100 µM | HT-29 > 100 µM | UACC-257 > 100 µM | HOP-92 > 100 µM | ACHN > 100 µM | LOX IMVI > 100 µM | RPMI-8226 > 100 µM | HOP-62 > 100 µM | M14 > 100 µM | SK-MEL-28 > 100 µM | SNB-75 > 100 µM | MDA-N > 100 µM | NCI-H23 > 100 µM | MCF7 > 100 µM

CC(C)(C)[Si](C)(C)OCc1cccc(OCCOc2cccc(CO[Si](C)(C)C(C)(C)C)c2[N+](=O)[O-])c1[N+](=O)[O-]
inactive: Hs-578T > 100 µM | COLO 205 > 100 µM | A549 > 100 µM | UACC-62 > 100 µM | HT-29 > 100 µM | UACC-257 > 100 µM | HOP-92 > 100 µM | ACHN > 100 µM | LOX IMVI > 100 µM | HOP-62 > 100 µM | M14 > 100 µM | SK-MEL-28 > 100 µM | SNB-75 > 100 µM | NCI-H522 > 100 µM | MDA-N > 100 µM | NCI-H23 > 100 µM | OVCAR-8 > 100 µM | MCF7 > 100 µM

COc1cc2c(cc1OC)C1CCc3ccccc3CN1CC2 (stereo not drawn)
inactive: Hs-578T > 100 µM | COLO 205 > 100 µM | A549 > 100 µM | UACC-62 > 100 µM | HT-29 > 100 µM | UACC-257 > 100 µM | HOP-92 > 100 µM | ACHN > 100 µM | LOX IMVI > 100 µM | HOP-62 > 100 µM | M14 > 100 µM | SK-MEL-28 > 100 µM | SNB-75 > 100 µM | NCI-H522 > 100 µM | MDA-N > 100 µM | NCI-H23 > 100 µM | OVCAR-8 > 100 µM | MCF7 > 100 µM
